Source: US9474780B2, “GIP and GLP-1 co-agonist compounds” (Eli Lilly and Company, priority 2015, dated 2016)
“And” between values parts separate entries of the source, which are not always exact repeats. Equal values may be shown once. Numbered stars: 1 amine (or outer) side, 2 acyl side, 3 side chain; on linkers, the order of the positions; unused ones are H or OH. Square brackets hold non-standard residues; d marks the D form. Side chains are listed from the residue outwards. Peptide text beside a SMILES is read from it. * marks the point of attachment. C18 diacid = O=C(O)CCCCCCCCCCCCCCCCC(=O)*; γGlu = O=C(O)[C@H](CCC(=O)[*:2])N[*:1]; 1Nal = N[C@@H](Cc1cccc2ccccc12)C(=O)O; AEEA = NCCOCCOCC(=O)O; Aib = CC(C)(N)C(=O)O

Assays:
[1] = Weight loss, body composition and hepatic steatosis in DIO mice; format: in vivo, mouse; conditions: for Blood Glucose: Day 15
Summary of the method: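 C57/BL6 DIO mice, individually housed at 24 °C, 12 h light/dark, food and water ad libitum; daily body weight and food intake, weight change versus pre-dose value of the same animal. Day 15: tail-vein glucose, then liver triglycerides and plasma cholesterol; ANOVA with Dunnett's test, ED50 for weight loss by non-linear fit.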

[2] = target: T1, human GLP-1R (Homo sapiens, UniProt P43220); assay: Functional hGLP-1R cAMP assay in HEK-293 clonal cells; format: cell-based; conditions: HEK293; percent of maximal response of hGLP-1(7-36)NH2
T1 construct: expressed in transfected cells; host or cells: 293HEK, Hygromycin-selected; crude plasma membranes
T1 sequence (P43220 24-463): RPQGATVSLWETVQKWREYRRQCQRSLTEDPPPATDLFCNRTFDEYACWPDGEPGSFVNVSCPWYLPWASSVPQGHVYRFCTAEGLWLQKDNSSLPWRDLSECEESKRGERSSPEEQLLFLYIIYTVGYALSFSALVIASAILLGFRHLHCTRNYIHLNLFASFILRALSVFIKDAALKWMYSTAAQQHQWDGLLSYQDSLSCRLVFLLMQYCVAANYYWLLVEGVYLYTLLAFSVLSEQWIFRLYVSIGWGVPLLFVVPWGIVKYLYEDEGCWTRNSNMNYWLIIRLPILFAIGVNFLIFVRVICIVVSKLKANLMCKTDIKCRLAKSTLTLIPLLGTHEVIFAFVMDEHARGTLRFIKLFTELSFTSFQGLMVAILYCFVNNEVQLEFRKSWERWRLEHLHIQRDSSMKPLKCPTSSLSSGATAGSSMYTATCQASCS
Description: (§1) After an incubation of 60 minutes at room temperature, the resulting increase in intracellular cAMP is quantitatively determined using the CisBio cAMP Dynamic 2 HTRF Assay Kit (Bedford, Mass.). Briefly, cAMP levels within the cell are detected by adding the cAMP-d2 conjugate in cell lysis buffer (20 μl) followed by the antibody anti-cAMP-Eu^3+-Cryptate, also in cell lysis buffer (20 μl). The resulting competitive assay is incubated for at least 60 minutes at room temperature, then detected using a PerkinElmer Envision® instrument with excitation at 320 nm and emission at 665 nm and 620 nm Envision units (emission at 665 nm/620 nm*10,000) are inversely proportional to the amount of cAMP present and are converted to nM cAMP per well using a cAMP standard curve. […] A relative EC50 value and percent top (Emax) is derived by non-linear regression analysis using the percent maximal response versus the concentration of the compound of the present invention, fitted to a four-parameter logistic equation.

[3] = target: T2, human GIP-R (Homo sapiens, UniProt P48546); assay: Functional hGIP-R cAMP assay in HEK-293 clonal cells; conditions: HEK293, read-out: Human GIP-R Emax
T2 sequence (P48546 22-466): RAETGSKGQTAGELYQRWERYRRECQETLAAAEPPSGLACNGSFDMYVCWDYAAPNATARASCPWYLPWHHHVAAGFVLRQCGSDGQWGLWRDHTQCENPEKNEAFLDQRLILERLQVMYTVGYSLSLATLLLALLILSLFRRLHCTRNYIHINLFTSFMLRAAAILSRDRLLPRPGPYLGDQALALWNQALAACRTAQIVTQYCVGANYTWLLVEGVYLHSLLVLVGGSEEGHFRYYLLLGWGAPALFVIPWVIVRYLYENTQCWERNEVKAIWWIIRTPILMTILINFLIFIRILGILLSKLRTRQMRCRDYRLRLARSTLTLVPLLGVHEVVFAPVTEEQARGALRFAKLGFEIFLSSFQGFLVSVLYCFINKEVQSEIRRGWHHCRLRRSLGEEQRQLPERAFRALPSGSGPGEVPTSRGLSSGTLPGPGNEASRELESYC
Description: as §1

[4] = Rat in vivo insulin secretion following intravenous glucose (IVGTT); conditions: s.c. 16 hour prior to glucose
Summary of the method: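 Male Wistar rats dosed s.c. with vehicle or 0.1–10 nmol/kg 16 h before glucose, then fasted and anesthetized with pentobarbital i.p. (65 mg/kg). Glucose ([…]) given after a time-zero bleed; plasma sampled at 2, 4, 6, 10, 20, 30 min. Glucose measured by analyzer, insulin by MSD immunoassay.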

[5] = target: Human GCGR (Homo sapiens, UniProt P47871); assay: Functional hGCGR cAMP assay in HEK-293 clonal cells
Sequence of Human GCGR (P47871 26-477): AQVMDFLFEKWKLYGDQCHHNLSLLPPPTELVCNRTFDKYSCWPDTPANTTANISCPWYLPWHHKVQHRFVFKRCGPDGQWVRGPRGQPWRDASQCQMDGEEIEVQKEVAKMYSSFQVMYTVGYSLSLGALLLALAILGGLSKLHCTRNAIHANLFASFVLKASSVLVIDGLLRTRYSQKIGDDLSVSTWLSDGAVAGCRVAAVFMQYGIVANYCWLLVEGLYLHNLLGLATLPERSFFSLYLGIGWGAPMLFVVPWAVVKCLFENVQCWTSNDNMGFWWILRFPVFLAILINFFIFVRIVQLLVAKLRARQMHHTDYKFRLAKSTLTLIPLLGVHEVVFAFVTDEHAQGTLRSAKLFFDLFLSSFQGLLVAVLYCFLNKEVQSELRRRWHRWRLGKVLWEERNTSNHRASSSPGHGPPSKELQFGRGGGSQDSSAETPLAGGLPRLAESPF

[6] = Pharmacokinetics in cynomolgus monkeys; format: in vivo; conditions: cynomolgus monkey, plasma, single SC 0.2 mg/kg, male monkeys, n = 2
Summary of the method: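 Single 0.2 mg/kg dose, intravenous or subcutaneous, in 20 mM citrate buffer pH 7.0; blood sampled from 2 to 312 hours post-dose. Plasma extracted with N-butanol, reconstituted in 30% acetonitrile/0.1% formic acid and quantified by LC/MS on a C5 column with Q-Exactive detection.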

[7] = target: T1, human GLP-1R; format: binding
[8] = tested on: mouse islets; assay: Mouse islet insulin secretion; format: cell-based; conditions: read-out: Mouse islet insulin secretion Mean ED50
Description: To assess action of compounds of the present invention in a system representing physiological GLP-1R and GIP-R expression levels insulin secretion, compounds are tested for effects on insulin secretion from wild-type rodent islets.
After common bile duct cannulation in male C57B1/6 mice (22-26 g) or male Sprague-Dawley rats (approx. 250 g), the pancreas is distended with Hank's buffer (3 ml for mice or 10 ml for rats, containing 2% BSA and 0.75 mg/ml Clzyme collagenase (VitaCyte). Subsequently, tissues are digested in Hank's buffer at 37° C. for 11-13 minutes (mice) or 14-16 minutes for rat pancreata. Purified islets (Histopaque-1100 gradient [Sigma-Aldrich], […] at 750× gravity) are cultured overnight in RPMI-1640 medium (Invitrogen) containing 10% FBS, 100 U/ml penicillin and 100 μg/ml streptomycin, and preconditioned by starvation in Earle's Balanced Salt Solution (EBSS) supplemented with 0.1% BSA and 2.8 mM glucose. Subsequently, islets are incubated in EBSS (Invitrogen) supplemented with 0.1% BSA, 2.8-11.2 mM glucose and increasing levels of compound (6 batches of 4 islets/condition). GLP-1(7-36)amide (30 nM) is used as a positive control. Insulin is measured over 90 minutes in supernatant using the MSD Insulin Assay (Meso Scale, Gaithersburg, Md.).

[9] = target: T3, GIP receptor (Mus musculus, UniProt Q0P543); assay: Intracellular cAMP in GLUTag incretin-secreting cells; format: cell-based, murine; conditions: 0.001-3 μM
T3 construct: endogenous in cells; host or cells: GLUTag cells (murine enteroendocrine line)
T3 sequence (Q0P543 19-460): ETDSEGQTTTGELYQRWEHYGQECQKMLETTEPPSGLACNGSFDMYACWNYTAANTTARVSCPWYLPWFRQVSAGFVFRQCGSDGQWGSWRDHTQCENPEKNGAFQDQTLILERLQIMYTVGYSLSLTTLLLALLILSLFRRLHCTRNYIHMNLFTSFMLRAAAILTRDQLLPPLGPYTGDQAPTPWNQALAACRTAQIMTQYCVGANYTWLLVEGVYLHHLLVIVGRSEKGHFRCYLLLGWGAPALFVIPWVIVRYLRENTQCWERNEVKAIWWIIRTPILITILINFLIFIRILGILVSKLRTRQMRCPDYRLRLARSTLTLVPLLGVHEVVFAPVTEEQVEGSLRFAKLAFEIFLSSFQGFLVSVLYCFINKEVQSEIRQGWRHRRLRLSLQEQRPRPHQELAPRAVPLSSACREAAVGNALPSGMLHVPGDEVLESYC
Description: On the day of the assay, media is decanted from cells and 50 μl EBSS Buffer (0.1% BSA, 2 mM glucose and 0.25 mM IBMX) containing a range of compound concentrations (0.001-3 μM) is added to cells. The plate is incubated at 37° C. for one hour and cAMP levels determined using Cisbio Dynamic 2 cAMP HTRF kit (Bedford, Mass.). 25 μl of anti-cAMP cryptate and 25 μl cAMP d2 is added to each well and plates incubated for one hour at room temperature. […] Data is analyzed with GraphPad using a 4-parameter non-linear logistic algorithm

CC[C@H](C)[C@H](NC(=O)[C@H](CC(C)C)NC(=O)[C@H](Cc1c[nH]c2ccccc12)NC(=O)[C@H](CCC(N)=O)NC(=O)[C@@H](NC(=O)[C@H](Cc1cccc2ccccc12)NC(=O)[C@H](C)NC(=O)[C@H](CCCCNC(=O)COCCOCCNC(=O)COCCOCCNC(=O)CC[C@H](NC(=O)CC[C@H](NC(=O)CCCCCCCCCCCCCCCCC(=O)O)C(=O)O)C(=O)O)NC(=O)[C@H](CCC(N)=O)NC(=O)[C@H](C)NC(=O)[C@@H](NC(=O)[C@H](CCCCN)NC(=O)[C@H](CC(=O)O)NC(=O)[C@H](CC(C)C)NC(=O)C(C)(C)NC(=O)[C@@H](NC(=O)[C@H](CO)NC(=O)[C@H](Cc1ccc(O)cc1)NC(=O)[C@H](CC(=O)O)NC(=O)[C@H](CO)NC(=O)[C@@H](NC(=O)[C@H](Cc1ccccc1)NC(=O)[C@@H](NC(=O)CNC(=O)[C@H](CCC(=O)O)NC(=O)C(C)(C)NC(=O)[C@@H](N)Cc1ccc(O)cc1)[C@@H](C)O)[C@@H](C)O)[C@@H](C)CC)[C@@H](C)CC)C(C)C)C(=O)N[C@@H](C)C(=O)NCC(=O)NCC(=O)N1CCC[C@H]1C(=O)N[C@@H](CO)C(=O)N[C@@H](CO)C(=O)NCC(=O)N[C@@H](C)C(=O)N1CCC[C@H]1C(=O)N1CCC[C@H]1C(=O)N1CCC[C@H]1C(=O)N[C@@H](CO)C(N)=O [Example 7] (H-Y[Aib]EGTFTSDYSI[Aib]LDKIAQK([AEEA-AEEA-γGlu-γGlu-C18 diacid])A[1Nal]VQWLIAGGPSSGAPPPS-NH2)
% Change from starting body weight ([1]; Table 10, 10 nmol/kg): −15.08 ± 1.22 %
% Change from starting fat mass ([1]; Table 10, 10 nmol/kg): −26.46 ± 2.31 %
% Change from starting body weight ([1]; Table 10, 30 nmol/kg): −20.70 ± 1.95 %
% Change from starting fat mass ([1]; Table 10, 30 nmol/kg): −43.49 ± 5.47 %
% Change from starting body weight ([1]; Table 10, 100 nmol/kg): −24.36 ± 2.06 %
% Change from starting fat mass ([1]; Table 10, 100 nmol/kg): −49.92 ± 3.40 %
Plasma Cholesterol ([1]; Table 13, 10 nmol/kg): 161.8 ± 6.2 mg/dL
Blood Glucose ([1]; Table 13, 10 nmol/kg): 113.6 ± 4.16 mg/dL
Plasma Cholesterol ([1]; Table 13, 30 nmol/kg): 153.6 ± 13.47 mg/dL
Blood Glucose ([1]; Table 13, 30 nmol/kg): 114.7 ± 4.70 mg/dL
Plasma Cholesterol ([1]; Table 13, 100 nmol/kg): 145.4 ± 9.48 mg/dL
Blood Glucose ([1]; Table 13, 100 nmol/kg): 114 ± 2.36 mg/dL
Emax [2]: 97.2 ± 3.4%
Emax [3]: 106 ± 3%
% max increase of insulin AUC [4]: 278 +/− 26% and 335 +/− 35%
EC50 [5]: > 1000 nM
CL/F [6]: 1.5 mL/h/kg
Cmax [6]: 2900 ng/mL
AUC(0-inf) ([6]; read-out: Mean AUC0-inf): 136 µg·h/mL
half-life ([6]; read-out: Mean T1/2 (converted)): 1860 min
Tmax ([6]; read-out: Mean Tmax): 6 h
Molar ratio of hGLP-1R/hGIP-R ([7]; normalized by factor 4.53 from native GIP and GLP-1 binding): 1.68
Absolute ratio of hGLP-1R/hGIP-R ([7]; ratio of Ki values): 7.6
EC50 [8]: 11.3 nM

CC[C@H](C)[C@H](NC(=O)[C@H](Cc1ccccc1)NC(=O)[C@H](CCC(=O)O)NC(=O)[C@H](CCCCN)NC(=O)[C@H](C)NC(=O)[C@H](C)NC(=O)[C@H](CCC(N)=O)NC(=O)CNC(=O)[C@H](CCC(=O)O)NC(=O)[C@H](CC(C)C)NC(=O)[C@H](Cc1ccc(O)cc1)NC(=O)[C@H](CO)NC(=O)[C@H](CO)NC(=O)[C@@H](NC(=O)[C@H](CC(=O)O)NC(=O)[C@H](CO)NC(=O)[C@@H](NC(=O)[C@H](Cc1ccccc1)NC(=O)[C@@H](NC(=O)CNC(=O)[C@H](CCC(=O)O)NC(=O)[C@H](C)NC(=O)[C@@H](N)Cc1c[nH]cn1)[C@@H](C)O)[C@@H](C)O)C(C)C)C(=O)N[C@@H](C)C(=O)N[C@@H](Cc1c[nH]c2ccccc12)C(=O)N[C@@H](CC(C)C)C(=O)N[C@H](C(=O)N[C@@H](CCCCN)C(=O)NCC(=O)N[C@@H](CCCNC(=N)N)C(N)=O)C(C)C [GLP-1,7-36-NH2]
cAMP accumulation in GLUTag cells [9]: fails to induce any changes in cAMP at all concentrations tested
